{"source": "ChEMBL document CHEMBL1201862", "about": "“PubChem BioAssay data set” (2004)", "key": {"Beta-galactosidase": {"target": "Beta-galactosidase (Escherichia coli, UniProt Q8VNN2)", "sequence (Q8VNN2 whole entry)": "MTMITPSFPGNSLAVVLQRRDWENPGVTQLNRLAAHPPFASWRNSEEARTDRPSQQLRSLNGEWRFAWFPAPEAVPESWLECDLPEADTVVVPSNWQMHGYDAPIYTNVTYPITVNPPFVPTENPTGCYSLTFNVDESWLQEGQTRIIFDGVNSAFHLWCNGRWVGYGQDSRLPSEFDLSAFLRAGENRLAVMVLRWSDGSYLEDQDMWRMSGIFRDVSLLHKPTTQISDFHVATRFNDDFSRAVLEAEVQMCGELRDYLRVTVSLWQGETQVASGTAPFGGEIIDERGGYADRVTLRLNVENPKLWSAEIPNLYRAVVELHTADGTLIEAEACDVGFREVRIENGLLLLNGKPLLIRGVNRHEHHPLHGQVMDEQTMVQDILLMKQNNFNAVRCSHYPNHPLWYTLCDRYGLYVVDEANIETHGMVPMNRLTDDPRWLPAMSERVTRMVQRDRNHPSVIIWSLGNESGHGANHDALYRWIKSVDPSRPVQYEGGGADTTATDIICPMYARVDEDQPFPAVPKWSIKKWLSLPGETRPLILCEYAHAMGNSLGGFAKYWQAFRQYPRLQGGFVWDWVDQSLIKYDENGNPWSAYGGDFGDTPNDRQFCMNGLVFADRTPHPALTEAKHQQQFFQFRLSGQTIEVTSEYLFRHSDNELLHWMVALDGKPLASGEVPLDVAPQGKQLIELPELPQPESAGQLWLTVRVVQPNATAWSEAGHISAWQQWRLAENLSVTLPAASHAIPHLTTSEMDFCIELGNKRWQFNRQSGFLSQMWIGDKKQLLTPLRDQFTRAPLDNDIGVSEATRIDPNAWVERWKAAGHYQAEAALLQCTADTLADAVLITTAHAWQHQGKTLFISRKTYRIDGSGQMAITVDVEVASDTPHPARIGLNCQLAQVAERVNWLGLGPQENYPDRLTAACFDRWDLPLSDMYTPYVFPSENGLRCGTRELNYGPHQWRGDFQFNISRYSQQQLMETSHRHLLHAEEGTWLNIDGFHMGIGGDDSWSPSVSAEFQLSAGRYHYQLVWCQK", "test": "detection-enzyme interference by beta-gal modulators – biochemical, E. coli enzyme, set 3, artefact control for CCR6 antagonist project, dose response (AID 504712)", "assay_type": "functional"}, "Streptokinase A": {"target": "T1, Streptokinase A (Streptococcus pyogenes serotype M1, UniProt P10520)", "T1 sequence (P10520 whole entry)": "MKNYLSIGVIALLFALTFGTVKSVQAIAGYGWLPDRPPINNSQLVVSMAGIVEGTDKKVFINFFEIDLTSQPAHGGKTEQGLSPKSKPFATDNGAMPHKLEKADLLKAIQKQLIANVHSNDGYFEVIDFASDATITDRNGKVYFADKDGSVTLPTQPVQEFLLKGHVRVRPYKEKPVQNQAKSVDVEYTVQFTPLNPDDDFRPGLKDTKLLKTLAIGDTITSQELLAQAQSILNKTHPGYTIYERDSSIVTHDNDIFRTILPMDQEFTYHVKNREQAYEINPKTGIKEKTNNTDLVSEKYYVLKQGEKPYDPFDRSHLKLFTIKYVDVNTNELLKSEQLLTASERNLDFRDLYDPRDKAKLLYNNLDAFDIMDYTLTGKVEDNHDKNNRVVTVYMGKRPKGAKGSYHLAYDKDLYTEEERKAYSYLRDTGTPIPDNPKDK", "test": "viability-normalized secreted streptokinase activity reduction – plasminogen activation absorbance, OD405, dose response (AID 1914);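 also: secreted streptokinase activity via plasminogen activation per viability signal from cell pellet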", "assay_type": "functional, Streptococcus pyogenes M1 GAS"}, "[1]": {"test": "NIH3T3 cell viability loss – ATP luminescence, mouse fibroblasts, counter-screen, dose response (AID 2010);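 also: cells exposed to compound for about 90 hours before reading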", "assay_type": "functional, cell-based"}}, "note": "Active and inactive are the calls of the source. Rule as the data show it, for most assays here: actives have a measured EC50 and inactives only a lower limit.", "data": [{"smiles": "COC(=O)c1ccccc1NC1=C/C(=N\\S(=O)(=O)c2ccc(C(=O)O)cc2)c2ccccc2C1=O", "values": [{"measurement": "IC50", "setting": "Beta-galactosidase", "value": "> 66.6 µM (inactive)"}]}, {"smiles": "O=C(O)c1ccc(N/N=C/c2ccc(OC(=O)c3ccccc3Cl)cc2)cc1", "values": [{"measurement": "EC50", "setting": "Streptokinase A", "value": "> 150 µM (not active)"}]}, {"smiles": "NC(=O)C1CCN(C2=C(Cl)C(=O)c3ccccc3C2=O)CC1", "values": [{"measurement": "EC50", "setting": "[1]", "value": "3.29 µM (active)"}]}]}
